Values quoted from earlier work as cited in patent US20190100806A1, “MARKER FOR PREDICTING TREATMENT RESPONSE TO ANTI-CANCER AGENT IN SOLID CANCER PATIENTS” (DAEWOONG PHARMACEUTICAL CO., LTD., priority 2016, published 2019).

What was measured:
[1] = test system: PC-3 (human prostate cancer) cells; conditions: PC-3 cells, PTEN-deficient; read-out: median effective concentration (EC50)
[2] = test system: Akt phosphorylation (Ser473); conditions: single dose, mouse model xenografted with PC-3 cells
[3] = test system: RAC serine/threonine-protein kinase (Akt) phosphorylation; conditions: mouse models xenografted with human PTEN-deficient tumor cells
[4] = test system: HCC70 (human breast ductal carcinoma) cells; conditions: PTEN-deficient, read-out: median effective concentration (EC50)

EC50 [1]: 36 nM
Structure (SMILES): Cc1c(Cn2c(C)nc3c(C(=O)O)cc(N4CCOCC4)cc32)cccc1C(F)(F)F [GSK-2636771]
Akt phosphorylation (Ser473) [2]: reduce Akt phosphorylation (Ser473) | phosphorylation of Akt [3]: inhibits the phosphorylation of RAC serine/threonine-protein kinase (Akt) in a dose-dependent manner | EC50 [4]: 72 nM
